According to EP0224249A1, “Amorphous benzimidazole derivatives” (SYNTEX (U.S.A.) INC., priority 1985, dated 1987):

Legend:
[1] = administered to humans; cited from earlier work
Dissolution rate at pH 2 = assay type: physicochemical
Text: The dissolution rate of amorphous fenbendazole versus crystalline fenbendazole at pH 2 was studied as a model for showing the bioavailability of the amorphous compound.

Ostertagia spp. [2] = assay: Anthelmintic efficacy in sheep carrying oxfendazole-resistant nematodes; assay type: in vivo
Description: (§1) Animals are then subjected to necropsy on day 6 post-treatment. Gastrointestinal tract, lungs, and liver are examined using standard parasitological techniques for nematode and trematode parasites.
(§2) (B) Sheep carrying nematodes with varying degrees of resistance to oxfendazole were treated with either levamisole, oxfendazole, or amorphous oxfendazole in accordance with the above procedure.
(§3) • Ost = Ostertagia spp. • Tri = Trichostrongylus spp. • Nem = Nematodirus spp. • Oes = Oesophagostomum spp. • Tr.o = Trichuris ovis

Oesophagostomum spp. = assay: as above; assay type: in vivo
Description: as §1, §2, §3

Trichostrongylus spp. [3] = assay: as above; assay type: in vivo
Description: as §1, §2, §3

Trichuris ovis = assay: as above; assay type: in vivo
Description: as §1, §2, §3

Nematodirus spp. = assay: as above; assay type: in vivo
Description: as §1, §2, §3

nematode parasites = assay: Overall comparison of the goat and sheep efficacy studies; assay type: in vivo; conditions: goat and sheep studies together
Text: (§4) (A) Fifteen (15) goats, preferably from a single source, known to be infected with nematode parasites as evidenced by positive fecal egg counts are used. The animals would be preferably of one sex. They will have been to be contaminated with goat parasite eggs and larvae, particularly Ostertagia spp. (hereinafter "Ost") and Trichostrongylus spp. (hereinafter "Tri")
as §1, §2

[4] = Blood plasma levels after oral administration to dogs; assay type: in vivo; conditions: 10 mg/kg; for Area Under the Curve / Area Under the Curve, mean (n = 6): plasma concentration vs time, 18720 min
Description: Dogs were administered orally either amorphous or crystalline oxfendazole at a dose of 10 mg/kg.
Blood samples were drawn and analyzed before administration and on days 1, 2, 3, 7, 10, and 13 following administration. The area under the curve was calculated for plasma concentration vs time profile.

Ostertagia spp. [5] = assay: Anthelmintic efficacy in naturally infected goats, necropsy on day 6 post-treatment; assay type: in vivo; conditions: necropsy day 6 post-treatment
Description: as §4, with “"Tri") • 1. - Control • 2. - 9 mg amorphous oxfendazole/kg • 3. - 15 mg oxfendazole/kg Animals are then subjected to necropsy on day 6 post-treatment. Gastrointestinal tract, lungs, and liver are examined using standard parasitological techniques for nematode and trematode parasites.” for “"Tri")”

Trichostrongylus spp. [6] = assay: as above; assay type: in vivo; conditions: necropsy day 6 post-treatment
Description: as §4, with “"Tri") • 1. - Control • 2. - 9 mg amorphous oxfendazole/kg • 3. - 15 mg oxfendazole/kg Animals are then subjected to necropsy on day 6 post-treatment. Gastrointestinal tract, lungs, and liver are examined using standard parasitological techniques for nematode and trematode parasites.” for “"Tri")”

## COC(=O)Nc1nc2ccc(C(=O)c3ccccc3)cc2[nH]1 [crystalline mebendazole, methyl 5-benzoyl-lH-benzimidazol-2-yl carbamate]
[1]
  absorbed: 3-4%

## COC(=O)Nc1nc2ccc(Sc3ccccc3)cc2[nH]1 [amorphous fenbendazole, methyl 5-(phenylthio)-lH-benzimidazol-2-yl carbamate]
Dissolution rate at pH 2; pH 2, 5 min
  % Dissolved: 73%
Dissolution rate at pH 2; pH 2, 15 min
  % Dissolved: 91%
Dissolution rate at pH 2; pH 2, 30 min
  % Dissolved: 125%
Dissolution rate at pH 2; pH 2, 60 min
  % Dissolved: 130%
Dissolution rate at pH 2; pH 2, 90 min
  % Dissolved: 112%
Dissolution rate at pH 2; pH 2, over time
  solubility compared with crystalline fenbendazole: more soluble than crystalline fenbendazole and remains more soluble over time

## COC(=O)Nc1nc2ccc([S+]([O-])c3ccccc3)cc2[nH]1 (stereo not drawn) [amorphous oxfendazole, methyl 5-(phenylsulfinyl)-lH-benzimidazol-2-yl carbamate]
Ostertagia spp. [2]; 3 mg/kg
  Percent Efficacy Ost: 55%
Ostertagia spp. [2]; 6 mg/kg
  Percent Efficacy Ost: 22%
Oesophagostomum spp.; 3 mg/kg
  Percent Efficacy Oes: 100%
Oesophagostomum spp.; 6 mg/kg
  Percent Efficacy Oes: 100%
Trichostrongylus spp. [3]; 3 mg/kg
  Percent Efficacy Tri: 100%
Trichostrongylus spp. [3]; 6 mg/kg
  Percent Efficacy Tri: 100%
Trichuris ovis; 3 mg/kg
  Percent Efficacy Tr. o: 9.5%
Trichuris ovis; 6 mg/kg
  Percent Efficacy Tr. o: 69%
Nematodirus spp.; 3 mg/kg
  Percent Efficacy Nem: 57%
Nematodirus spp.; 6 mg/kg
  Percent Efficacy Nem: 82%
Nematode parasites
  dose for approximately equivalent efficacy, relative to that required for oxfendazole: about 60%
[4]; Dog No. A
  Area Under the Curve: 20465.0 ng/ml hr
[4]; Dog No. B
  Area Under the Curve: 9717.5 ng/ml hr
[4]; Dog No. C
  Area Under the Curve: 11592.5 ng/ml hr
[4]; Dog No. D
  Area Under the Curve: 24245.0 ng/ml hr
[4]; Dog No. E
  Area Under the Curve: 12653.8 ng/ml hr
[4]; Dog No. F
  Area Under the Curve: 25475.0 ng/ml hr
[4]; dogs
  plasma level of oxfendazole compared with oxfendazole in commercially available form: higher plasma level of oxfendazole
  Area Under the Curve, mean (n = 6): 17358.1 ng/ml hr
Ostertagia spp. [5]; 9 mg/kg
  Percent Efficacy Ost: 70%
Trichostrongylus spp. [6]; 9 mg/kg
  Percent Efficacy Tri: 98%

## COC(=O)Nc1nc2ccc([S+]([O-])c3ccccc3)cc2[nH]1 (stereo not drawn) [oxfendazole, methyl 5-(phenylsulfinyl)-lH-benzimidazol-2-yl carbamate]
Ostertagia spp. [2]; 5 mg/kg
  Percent Efficacy Ost: 0%
Ostertagia spp. [2]; 10 mg/kg
  Percent Efficacy Ost: 28%
Oesophagostomum spp.; 5 mg/kg
  Percent Efficacy Oes: 100%
Oesophagostomum spp.; 10 mg/kg
  Percent Efficacy Oes: 100%
Trichostrongylus spp. [3]; 5 mg/kg
  Percent Efficacy Tri: 100%
Trichostrongylus spp. [3]; 10 mg/kg
  Percent Efficacy Tri: 99.7%
Trichuris ovis; 5 mg/kg
  Percent Efficacy Tr. o: 38%
Trichuris ovis; 10 mg/kg
  Percent Efficacy Tr. o: 62%
Nematodirus spp.; 5 mg/kg
  Percent Efficacy Nem: 22%
Nematodirus spp.; 10 mg/kg
  Percent Efficacy Nem: 80%
[4]; Dog No. A, listed as Crystalline Ox.
  Area Under the Curve: 2700.0 ng/ml hr
[4]; Dog No. B, listed as Crystalline Ox.
  Area Under the Curve: 2622.0 ng/ml hr
[4]; Dog No. C, listed as Crystalline Ox.
  Area Under the Curve: 2130.0 ng/ml hr
[4]; Dog No. D, listed as Crystalline Ox.
  Area Under the Curve: 3341.0 ng/ml hr
[4]; Dog No. E, listed as Crystalline Ox.
  Area Under the Curve: 3107.5 ng/ml hr
[4]; Dog No. F, listed as Crystalline Ox.
  Area Under the Curve: 4149.5 ng/ml hr
[4]; dogs, listed as Crystalline Ox.
  Area Under the Curve, mean (n = 6): 3008.4 ng/ml hr
Ostertagia spp. [5]; 15 mg/kg
  Percent Efficacy Ost: 77%
Trichostrongylus spp. [6]; 15 mg/kg
  Percent Efficacy Tri: 80%

## COC(=O)Nc1nc2cc(Sc3ccccc3)ccc2[nH]1 [crystalline fenbendazole, methyl 5-(phenylthio)-lH-benzimidazol-2-yl carbamate]
Dissolution rate at pH 2; pH 2, 5 min
  % Dissolved: 21%
Dissolution rate at pH 2; pH 2, 15 min
  % Dissolved: 22%
Dissolution rate at pH 2; pH 2, 30 min
  % Dissolved: 46%
Dissolution rate at pH 2; pH 2, 60 min
  % Dissolved: 41%
Dissolution rate at pH 2; pH 2, 90 min
  % Dissolved: 25%

## c1ccc([C@H]2CN3CCSC3=N2)cc1 [Levamisole]
Ostertagia spp. [2]; 8 mg/kg
  Percent Efficacy Ost: 98%
Oesophagostomum spp.; 8 mg/kg
  Percent Efficacy Oes: 100%
Trichostrongylus spp. [3]; 8 mg/kg
  Percent Efficacy Tri: 49%
Trichuris ovis; 8 mg/kg
  Percent Efficacy Tr. o: 37%
Nematodirus spp.; 8 mg/kg
  Percent Efficacy Nem: 100%
